Measurements as given in ChEMBL document CHEMBL4414610, “Constituents from the Leaves of Tetraena mongolica and Their Protective Activity in HEK 293t Cells Damaged by CdCl2” (J Nat Prod, 2019).
Activity calls are given as the source filed them. The rule behind the calls is not given here.

Experiments:
HEK-293T [1] = test: Cytoprotective activity against CdCl2-induced cell death in human HEK293T cells at 25 to 100 uM preincubated for 2 hrs followed by CdCl2 treatment and measured after 12 hrs by MTT assay; type: functional, cell-based
HEK-293T [2] = test: Cytoprotective activity against CdCl2-induced cell death in human HEK293T cells assessed as increase in cell viability preincubated for 2 hrs followed by CdCl2 treatment and measured after 48 hrs by MTT assay; type: functional, cell-based

For `C[C@@H]1O[C@@H](OC[C@H]2O[C@@H](Oc3c(-c4ccc(O)c(O)c4)oc4cc(O)cc(O)c4c3=O)[C@H](O)[C@@H](O)[C@@H]2O)[C@H](O)[C@H](O)[C@H]1O`, the Activity (HEK-293T [1]) was “Active”.
In the case of `C[C@H](/C=C/[C@@]1(O)[C@H](C)CC(=O)CC1(C)C)O[C@@H]1O[C@H](CO)[C@@H](O)[C@H](OS(=O)(=O)O)[C@H]1O`, the Activity (HEK-293T [1]) is reported as “Active”.
`CC1=CC(=O)CC(C)(C)[C@@]1(O)/C=C/[C@@H](C)O[C@@H]1O[C@H](CO)[C@@H](O)[C@H](O)[C@H]1O` [6S,9R-ROSEOSIDE] was tested, and the IC50 (HEK-293T [2]) was 55.7 µM and the Activity (HEK-293T [1]) was “Active”.
With `C[C@H](CCc1ccc(O)cc1)O[C@@H]1O[C@H](CO)[C@@H](O)[C@H](OS(=O)(=O)O)[C@H]1O` the Activity (HEK-293T [1]) was “Active”.
`COc1cc(-c2oc3cc(O)cc(O)c3c(=O)c2O[C@@H]2O[C@H](CO[C@@H]3O[C@@H](C)[C@H](O)[C@@H](O)[C@H]3O)[C@@H](O)[C@H](O)[C@H]2O)ccc1O` was tested, and the Activity (HEK-293T [1]) was “Active”.
`O=c1c(O[C@@H]2O[C@H](CO)[C@@H](O)[C@H](O)[C@H]2O)c(-c2ccc(O)c(O)c2)oc2cc(O)cc(O)c12` was tested, and the Activity (HEK-293T [1]) was “Active”.
For `OC[C@H]1O[C@@H](OCc2ccccc2)[C@H](O)[C@@H](O)[C@@H]1O`, the IC50 (HEK-293T [2]) was 80.3 µM and the Activity (HEK-293T [1]) was “Active”.
`CC1=CC(=O)CC(C)(C)[C@@]1(O)/C=C/[C@@H](C)O[C@@H]1O[C@H](CO)[C@@H](O)[C@H](OS(=O)(=O)O)[C@H]1O` was tested, and the Activity (HEK-293T [1]) was “Active”.
